Experimental data taken from patent US9376392B2, “2-(tert-butoxy)-2-(7-methylquinolin-6-yl) acetic acid derivatives for treating AIDS” (Gilead Sciences, Inc., priority 2012, dated 2016).

Tested on: HIV-IIIb (MT-4 cells)
Assay: Test A: Antiviral Assays in MT4 Cells
Format: cell-based
Details: MT-4 cells infected with HIV-IIIb, 5 days of incubation, CellTiter-Glo readout
Method: The antiviral properties of a compound disclosed herein may be determined using Test A described below.
Test A: Antiviral Assays in MT4 Cells
For the antiviral assay utilizing MT-4 cells, 0.4 μL of […] test concentration of 3-fold serially diluted compound in DMSO was added to 40 μL of cell growth medium (RPMI 1640, 10% FBS, 1% penicillin/Streptomycin, 1% L-Glutamine, 1% HEPES) in each well of 384-well assay plates (10 concentrations) in quadruplicate.
1 mL aliquots of 2×10e6 MT-4 cells are pre-infected for 1 and 3 hrs respectively, @ 37° C. with 25 μL (MT4) or of either cell growth medium (mock-infected) or a fresh 1:250 dilution of an HIV-IIIb concentrated ABI stock (0.004 m.o.i. for MT4 cells). Infected and uninfected cells are diluted in cell growth medium and 35 μL of 2000 (for MT4) cells is added to each well of the assay plates.
Assay plates were then incubated in a 37° C. incubator. After 5 days of incubation, […] 2× concentrated CellTiter-Glo™ Reagent (catalog #G7573, Promega Biosciences, Inc., Madison, Wis.) was added to each well of the assay plate. Cell lysis was carried out by incubating at room temperature for 2-3 min and then chemiluminescence was read using the Envision reader (PerkinElmer).

SMILES | EC50 (MT4, 120 h) | EC50
Cc1cc2c(ccc(=O)n2Cc2ccc(C(F)(F)F)cc2)c(-c2ccc3c4c(ccnc24)CCO3)c1[C@H](OC(C)(C)C)C(=O)O (atropisomer, axis not shown) [Example 11, (S)-2-tert-Butoxy-2-((R)-5-(2,3-dihydropyrano[4,3,2-de]quinolin-7-yl)-7-methyl-2-oxo-1-(4-(trifluoromethyl)benzyl)-1,2-dihydroquinolin-6-yl)acetic acid] | 0.983 µM | –
Cc1cc2c(ccc(=O)n2Cc2cc(C(F)(F)F)cc(C(F)(F)F)c2)c(-c2ccc3c4c(ccnc24)CCO3)c1[C@H](OC(C)(C)C)C(=O)O (atropisomer, axis not shown) [Example 20, (S)-2-((R)-1-(3,5-Bis(trifluoromethyl)benzyl)-5-(2,3-dihydropyrano[4,3,2-de]quinolin-7-yl)-7-methyl-2-oxo-1,2-dihydroquinolin-6-yl)-2-tert-butoxyacetic acid] | 0.09 µM | –
Cc1cc2c(ccc(=O)n2-c2cccc(NS(C)(=O)=O)c2)c(-c2ccc3c4c(ccnc24)CCO3)c1[C@H](OC(C)(C)C)C(=O)O (atropisomer, axis not shown) [Example 36, (S)-2-tert-Butoxy-2-((R)-5-(2,3-dihydropyrano[4,3,2-de]quinolin-7-yl)-7-methyl-1-(3-(methylsulfonamido)phenyl)-2-oxo-1,2-dihydroquinolin-6-yl)acetic acid] | 37.4 µM | –
Cc1cc2nc(C(C)(C)O)ccc2c(-c2ccc3c4c(ccnc24)CCO3)c1[C@H](OC(C)(C)C)C(=O)O (atropisomer, axis not shown) [Example 51, (S)-2-tert-Butoxy-2-((R)-5-(2,3-dihydropyrano[4,3,2-de]quinolin-7-yl)-2-(2-hydroxypropan-2-yl)-7-methylquinolin-6-yl)acetic acid] | 0.186 µM | –
COc1cc(Cn2c(=O)ccc3c(-c4ccc5c6c(ccnc46)CCO5)c([C@H](OC(C)(C)C)C(=O)O)c(C)cc32)cc(OC)c1 (atropisomer, axis not shown) [Example 33, (S)-2-tert-Butoxy-2-((R)-5-(2,3-dihydropyrano[4,3,2-de]quinolin-7-yl)-1-(3,5-dimethoxybenzyl)-7-methyl-2-oxo-1,2-dihydroquinolin-6-yl)acetic acid] | 0.133 µM | –
COc1cccc(Cn2c(=O)ccc3c(-c4ccc5c6c(ccnc46)CCO5)c([C@H](OC(C)(C)C)C(=O)O)c(C)cc32)c1 (atropisomer, axis not shown) [Example 26, (S)-2-tert-butoxy-2-((R)-5-(2,3-dihydropyrano[4,3,2-de]quinolin-7-yl)-1-(3-methoxybenzyl)-7-methyl-2-oxo-1,2-dihydroquinolin-6-yl)acetic acid] | 0.0993 µM | –
Cc1cc2nc(OCc3ccc(C(N)=O)cc3)ccc2c(-c2ccc3c4c(ccnc24)CCO3)c1[C@H](OC(C)(C)C)C(=O)O (atropisomer, axis not shown) [Example 8, (S)-2-tert-Butoxy-2-((R)-2-(4-carbamoylbenzyloxy)-5-(2,3-dihydropyrano[4,3,2-de]quinolin-7-yl)-7-methylquinolin-6-yl)acetic acid] | 0.0368 µM | –
Cc1cc2c(ccc(=O)n2Cc2cc(F)cc(C(F)(F)F)c2)c(-c2ccc3c4c(ccnc24)CCO3)c1[C@H](OC(C)(C)C)C(=O)O (atropisomer, axis not shown) [Example 27, (S)-2-tert-Butoxy-2-((R)-5-(2,3-dihydropyrano[4,3,2-de]quinolin-7-yl)-1-(3-fluoro-5-(trifluoromethyl)benzyl)-7-methyl-2-oxo-1,2-dihydroquinolin-6-yl)acetic acid] | 0.0535 µM | –
CCC(C)(C)O[C@H](C(=O)O)c1c(C)cc2nc(C)ccc2c1-c1ccc2c3c(ccnc13)CCO2 (atropisomer, axis not shown) [Example 45, (S)-2-((S)-5-(2,3-Dihydropyrano[4,3,2-de]quinolin-7-yl)-2,7-dimethylquinolin-6-yl)-2-(tert-pentyloxy)acetic acid] | – | 13.2 µM
Cc1cc2nc(C#N)ccc2c(-c2ccc3c4c(ccnc24)CCO3)c1[C@H](OC(C)(C)C)C(=O)O (atropisomer, axis not shown) [Example 50, (S)-2-tert-Butoxy-2-((R)-2-cyano-5-(2,3-dihydropyrano[4,3,2-de]quinolin-7-yl)-7-methylquinolin-6-yl)acetic acid] | 0.166 µM | –
Cc1cc2c(ccc(=O)n2Cc2ccccc2OC(F)(F)F)c(-c2ccc3c4c(ccnc24)CCO3)c1[C@H](OC(C)(C)C)C(=O)O (atropisomer, axis not shown) [Example 15, (S)-2-tert-Butoxy-2-((R)-5-(2,3-dihydropyrano[4,3,2-de]quinolin-7-yl)-7-methyl-2-oxo-1-(2-(trifluoromethoxy)benzyl)-1,2-dihydroquinolin-6-yl)acetic acid] | 0.359 µM | –
Cc1cc2c(ccc(=O)n2Cc2cccc(C(F)F)c2)c(-c2ccc3c4c(ccnc24)CCO3)c1[C@H](OC(C)(C)C)C(=O)O (atropisomer, axis not shown) [Example 30, (S)-2-tert-Butoxy-2-((R)-1-(3-(difluoromethyl)benzyl)-5-(2,3-dihydropyrano[4,3,2-de]quinolin-7-yl)-7-methyl-2-oxo-1,2-dihydroquinolin-6-yl)acetic acid] | 0.0347 µM | –
Cc1cc2c(ccc(=O)n2Cc2cccc(S(C)(=O)=O)c2)c(-c2ccc(Cl)cc2)c1[C@H](OC(C)(C)C)C(=O)O [Example 6, (S)-2-tert-Butoxy-2-(5-(4-chlorophenyl)-7-methyl-1-(3-(methylsulfonyl)benzyl)-2-oxo-1,2-dihydroquinolin-6-yl)acetic acid] | 0.29 µM | –
Cc1cc2nc(OCc3ccccc3)ccc2c(-c2ccc3c4c(ccnc24)CCO3)c1[C@H](OC(C)(C)C)C(=O)O (atropisomer, axis not shown) [Example 12, (S)-2-((R)-2-(Benzyloxy)-5-(2,3-dihydropyrano[4,3,2-de]quinolin-7-yl)-7-methylquinolin-6-yl)-2-tert-butoxyacetic acid] | 0.05 µM | –
Cc1cc2c(ccc(=O)n2Cc2cccnc2)c(-c2ccc3c4c(ccnc24)CCO3)c1[C@H](OC(C)(C)C)C(=O)O (atropisomer, axis not shown) [Example 22, (S)-2-tert-Butoxy-2-((R)-5-(2,3-dihydropyrano[4,3,2-de]quinolin-7-yl)-7-methyl-2-oxo-1-(pyridin-3-ylmethyl)-1,2-dihydroquinolin-6-yl)acetic acid] | 0.318 µM | –
Cc1cc2nc(OCc3cccc(S(C)(=O)=O)c3)ccc2c(-c2ccc3c4c(ccnc24)CCO3)c1[C@H](OC(C)(C)C)C(=O)O (atropisomer, axis not shown) [Example 4, (S)-2-tert-Butoxy-2-((R)-5-(2,3-dihydropyrano[4,3,2-de]quinolin-7-yl)-7-methyl-2-(3-(methylsulfonyl)benzyloxy)quinolin-6-yl)acetic acid] | 0.0136 µM | –
Cc1cc2nc(C(C)F)ccc2c(-c2ccc3c4c(ccnc24)CCO3)c1[C@H](OC(C)(C)C)C(=O)O (stereo partly drawn) [Example 53, (2S)-2-tert-Butoxy-2-((5R)-5-(2,3-dihydropyrano[4,3,2-de]quinolin-7-yl)-2-(1-fluoroethyl)-7-methylquinolin-6-yl)acetic acid] | 0.0221 µM | –
Cc1cc2nc(OCc3ccccc3S(C)(=O)=O)ccc2c(-c2ccc3c4c(ccnc24)CCO3)c1[C@H](OC(C)(C)C)C(=O)O (atropisomer, axis not shown) [Example 10, (S)-2-tert-Butoxy-2-((R)-5-(2,3-dihydropyrano[4,3,2-de]quinolin-7-yl)-7-methyl-2-(2-(methylsulfonyl)benzyloxy)quinolin-6-yl)acetic acid] | 0.00863 µM | –
Cc1cc2c(ccc(=O)n2Cc2cccc3c2cnn3C)c(-c2ccc3c4c(ccnc24)CCO3)c1[C@H](OC(C)(C)C)C(=O)O (atropisomer, axis not shown) [Example 28, (S)-2-tert-Butoxy-2-((R)-5-(2,3-dihydropyrano[4,3,2-de]quinolin-7-yl)-7-methyl-1-((1-methyl-1H-indazol-4-yl)methyl)-2-oxo-1,2-dihydroquinolin-6-yl)acetic acid] | 0.0458 µM | –
Cc1cc2nc(N)ccc2c(-c2ccc3c4c(ccnc24)CCO3)c1[C@H](OC(C)(C)C)C(=O)O (atropisomer, axis not shown) [Example 47, (S)-2-((R)-2-Amino-5-(2,3-dihydropyrano[4,3,2-de]quinolin-7-yl)-7-methylquinolin-6-yl)-2-tert-butoxyacetic acid] | 0.292 µM | –
Cc1cc2c(ccc(=O)n2Cc2cncnc2)c(-c2ccc3c4c(ccnc24)CCO3)c1[C@H](OC(C)(C)C)C(=O)O (atropisomer, axis not shown) [Example 25, (S)-2-tert-butoxy-2-((R)-5-(2,3-dihydropyrano[4,3,2-de]quinolin-7-yl)-7-methyl-2-oxo-1-(pyrimidin-5-ylmethyl)-1,2-dihydroquinolin-6-yl)acetic acid] | 0.472 µM | –
Cc1cc2c(ccc(=O)n2CCCc2ccccc2)c(-c2ccc3c4c(ccnc24)CCO3)c1[C@H](OC(C)(C)C)C(=O)O (atropisomer, axis not shown) [Example 24, (S)-2-tert-Butoxy-2-((R)-5-(2,3-dihydropyrano[4,3,2-de]quinolin-7-yl)-7-methyl-2-oxo-1-(3-phenylpropyl)-1,2-dihydroquinolin-6-yl)acetic acid] | 0.687 µM | –
